In patent EP4545091A1 (priority 2023, dated 2025):
Where a name gives a salt, the structure may show the parent alone. Bridges are numbered along the chain shown (N, C = ends).

Columns and labels:
[1] = test system: VSV-G glycoprotein; type: cell-based
[2] = test system: SARS-CoV-2 Omicron BA.5; type: cell-based
[3] = test system: SARS-CoV-2 BA.5; type: cell-based
[4] = test system: SARS-CoV-2 Wuhan Hu-1 strain; settings: 48 h
[5] = test system: hCoV-NL63; settings: 48 h
[6] = test system: SARS-CoV spike; settings: 48 h
[7] = test system: MERS-CoV spike; settings: 48 h
[8] = test system: Influenza A virus (IAV) H1N1; settings: virus (IAV, 48 h)
[9] = test system: SARS-CoV-2 Wuhan Hu-1 spike; test: microbe, parasite or virus in culture; type: cell-based; settings: Severe acute respiratory syndrome coronavirus 2, Caco-2, 48 h, read-out: IC50, SARS-CoV-2 spike-driven entry

| Molecule | entry of VSV-G bearing control pseudoparticles [1] | viral titers two days post infection [2] | reduction of cumulative RNA copy production [3] [%] | replication (RNA copies/ml in supernatants) [3] | IC50 [4] [nM] | IC50 [5] [nM] | IC50 [6] [nM] | IC50 [7] [nM] | IC50 [8] [nM] | IC50 [9] [nM] |
| --- | --- | --- | --- | --- | --- | --- | --- | --- | --- | --- |
| VAACNLPIVRGPCRAFIQLWAFDAVKGKCVLFPYGGCQGNGNKFYSEKECREYCGVPGDGD (disulfide 4-54, 13-37, 29-50) [Trypstatin] | did not affect entry | strongly reduced viral titers | > 99.9 | almost entirely prevented replication | 26 | 190 | 31 | 78 | 222 | – |
| CN(C)C(=O)COC(=O)Cc1ccc(OC(=O)c2ccc(NC(=N)N)cc2)cc1 [Camostat mesylate] | – | – | – | – | – | – | – | – | – | 70 |
